Target: Nav 1.7 (Homo sapiens (Human), UniProt Q15858)
Experiment: in-vitro Nav 1.7 PX (IC50)
Assay type: cell-based
Settings: in-vitro Nav 1.7 PX data

Nav 1.7, sequence (Q15858 whole entry): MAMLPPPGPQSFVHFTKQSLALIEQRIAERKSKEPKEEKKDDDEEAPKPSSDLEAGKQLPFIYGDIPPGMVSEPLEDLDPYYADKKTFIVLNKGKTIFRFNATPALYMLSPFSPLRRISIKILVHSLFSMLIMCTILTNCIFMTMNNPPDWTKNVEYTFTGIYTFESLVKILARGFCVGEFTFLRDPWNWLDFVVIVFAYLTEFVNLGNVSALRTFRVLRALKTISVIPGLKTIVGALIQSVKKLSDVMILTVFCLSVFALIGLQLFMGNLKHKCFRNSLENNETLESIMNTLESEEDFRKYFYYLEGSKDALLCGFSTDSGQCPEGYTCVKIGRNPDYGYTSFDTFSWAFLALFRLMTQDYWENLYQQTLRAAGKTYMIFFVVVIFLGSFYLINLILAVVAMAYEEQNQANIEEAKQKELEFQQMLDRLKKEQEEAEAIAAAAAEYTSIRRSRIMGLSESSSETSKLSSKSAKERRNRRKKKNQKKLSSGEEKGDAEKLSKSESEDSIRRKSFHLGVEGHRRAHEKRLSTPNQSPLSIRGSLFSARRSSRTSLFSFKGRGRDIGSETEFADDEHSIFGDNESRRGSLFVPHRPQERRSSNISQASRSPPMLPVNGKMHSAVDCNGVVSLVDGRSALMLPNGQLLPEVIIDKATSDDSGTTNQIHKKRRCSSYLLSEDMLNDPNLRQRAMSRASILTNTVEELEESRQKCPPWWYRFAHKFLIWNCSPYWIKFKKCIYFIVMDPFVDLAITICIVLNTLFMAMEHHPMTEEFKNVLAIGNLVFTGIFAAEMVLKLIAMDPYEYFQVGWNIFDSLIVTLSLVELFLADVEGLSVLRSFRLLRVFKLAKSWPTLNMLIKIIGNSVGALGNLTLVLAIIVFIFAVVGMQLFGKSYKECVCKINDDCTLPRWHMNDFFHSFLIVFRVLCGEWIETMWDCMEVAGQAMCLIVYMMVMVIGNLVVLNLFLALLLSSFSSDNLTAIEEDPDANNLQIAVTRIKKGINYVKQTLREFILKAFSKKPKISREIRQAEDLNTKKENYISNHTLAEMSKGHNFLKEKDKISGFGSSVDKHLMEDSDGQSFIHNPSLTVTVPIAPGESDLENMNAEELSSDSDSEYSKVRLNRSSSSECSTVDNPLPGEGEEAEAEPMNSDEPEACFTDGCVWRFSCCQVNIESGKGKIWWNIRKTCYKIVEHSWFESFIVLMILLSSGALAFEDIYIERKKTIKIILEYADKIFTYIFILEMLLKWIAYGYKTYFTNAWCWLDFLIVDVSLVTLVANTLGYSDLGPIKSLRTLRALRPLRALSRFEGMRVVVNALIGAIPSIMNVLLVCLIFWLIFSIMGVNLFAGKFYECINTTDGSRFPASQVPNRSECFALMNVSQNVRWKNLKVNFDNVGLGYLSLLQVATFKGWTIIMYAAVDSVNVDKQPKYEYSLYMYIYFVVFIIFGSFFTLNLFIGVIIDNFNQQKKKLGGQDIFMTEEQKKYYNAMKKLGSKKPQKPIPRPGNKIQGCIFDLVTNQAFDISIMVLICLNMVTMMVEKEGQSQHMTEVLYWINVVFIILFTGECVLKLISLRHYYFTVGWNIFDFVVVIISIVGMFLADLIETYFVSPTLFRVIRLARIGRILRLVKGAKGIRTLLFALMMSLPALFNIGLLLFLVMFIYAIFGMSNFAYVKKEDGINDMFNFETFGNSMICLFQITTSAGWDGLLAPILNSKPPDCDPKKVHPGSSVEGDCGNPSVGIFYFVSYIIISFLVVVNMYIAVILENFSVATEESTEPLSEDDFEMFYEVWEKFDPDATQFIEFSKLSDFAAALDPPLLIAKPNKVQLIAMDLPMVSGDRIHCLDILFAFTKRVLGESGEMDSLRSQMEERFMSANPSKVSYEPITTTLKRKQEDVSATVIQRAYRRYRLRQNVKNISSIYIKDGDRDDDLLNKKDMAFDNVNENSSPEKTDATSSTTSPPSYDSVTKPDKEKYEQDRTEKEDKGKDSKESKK

Row | Structure (SMILES) | IC50
1 | COc1nc(-c2cccc(C)c2)c(Cl)cc1-n1c(=O)ccc2cc(S(=O)(=O)Nc3ccon3)ccc21 [Example 1088, 1-(5-chloro-2-methoxy-6-(3-methylphenyl)-3-pyridinyl)-N-3-isoxazolyl-2-oxo-1,2-dihydro-6-quinolinesulfonamide] | 47 nM
2 | COc1nc(-c2cccc(C)c2)c(Cl)cc1-n1c(=O)ccc2cc(S(=O)(=O)Nc3ccon3)ccc21 [Example 1089, 1-(5-chloro-2-methoxy-6-(3-methylphenyl)-3-pyridinyl)-N-3-isoxazolyl-2-oxo-1,2-dihydro-6-quinolinesulfonamide] | 3240 nM
3 | COc1nc(-c2cccc(C#N)c2)c(Cl)cc1-n1c(=O)ccc2cc(S(=O)(=O)Nc3ccon3)ccc21 [Example 1090, 1-(5-chloro-6-(3-cyanophenyl)-2-methoxy-3-pyridinyl)-N-3-isoxazolyl-2-oxo-1,2-dihydro-6-quinolinesulfonamide] | 201 nM
4 | COc1nc(-c2cccc(C#N)c2)c(Cl)cc1-n1c(=O)ccc2cc(S(=O)(=O)Nc3ccon3)ccc21 [Example 1091, 1-(5-chloro-6-(3-cyanophenyl)-2-methoxy-3-pyridinyl)-N-3-isoxazolyl-2-oxo-1,2-dihydro-6-quinolinesulfonamide] | 20300 nM
5 | COc1cccc(-c2nc(OC)c(-n3c(=O)ccc4cc(S(=O)(=O)Nc5ccon5)ccc43)cc2Cl)c1 [Example 1092, 1-(5-chloro-2-methoxy-6-(3-methoxyphenyl)-3-pyridinyl)-N-3-isoxazolyl-2-oxo-1,2-dihydro-6-quinolinesulfonamide] | 48 nM
6 | COc1cccc(-c2nc(OC)c(-n3c(=O)ccc4cc(S(=O)(=O)Nc5ccon5)ccc43)cc2Cl)c1 [Example 1093, 1-(5-chloro-2-methoxy-6-(3-methoxyphenyl)-3-pyridinyl)-N-3-isoxazolyl-2-oxo-1,2-dihydro-6-quinolinesulfonamide] | 4940 nM
7 | COc1cc(-c2cc(F)cc(C(F)(F)F)c2)ccc1-n1c(=O)ccc2cc(S(=O)(=O)Nc3cnccn3)ccc21 [Example 1094, 1-(3′-fluoro-3-methoxy-5′-(trifluoromethyl)-4-biphenylyl)-2-oxo-N-2-pyrazinyl-1,2-dihydro-6-quinolinesulfonamide] | 69 nM
8 | COc1cc(-c2cc(F)cc(C(F)(F)F)c2)ccc1-n1c(=O)ccc2cc(S(=O)(=O)Nc3cccnn3)ccc21 [Example 1095, 1-(3′-fluoro-3-methoxy-5′-(trifluoromethyl)-4-biphenylyl)-2-oxo-N-3-pyridazinyl-1,2-dihydro-6-quinolinesulfonamide] | 6 nM
9 | COc1cc([C@@H]2CCOC(C)(C)C2)c(F)cc1-n1c(=O)ccc2cc(S(=O)(=O)Nc3ccon3)ccc21 [Example 1096, 1-(4-((4R)-2,2-dimethyltetrahydro-2H-pyran-4-yl)-5-fluoro-2-methoxyphenyl)-N-3-isoxazolyl-2-oxo-1,2-dihydro-6-quinolinesulfonamide, 1-(4-((4S)-2,2-dimethyltetrahydro-2H-pyran-4-yl)-5-fluoro-2-methoxyphenyl)-N-3-isoxazolyl-2-oxo-1,2-dihydro-6-quinolinesulfonamide] | 1120 nM
10 | COc1cc(-c2cc(F)cc(C(F)(F)F)c2)ccc1-n1c(=O)ccc2cc(S(=O)(=O)Nc3ncccn3)ccc21 [Example 1097] | 50 nM
11 | COc1cc(-c2cc(F)cc(C(F)(F)F)c2)ccc1-n1c(=O)ccc2cc(S(=O)(=O)Nc3ccnc(C)n3)ccc21 [Example 1100, 1-(3′-fluoro-3-methoxy-5′-(trifluoromethyl)-4-biphenylyl)-N-(2-methyl-4-pyrimidinyl)-2-oxo-1,2-dihydro-6-quinolinesiilfonamide] | 37 nM
12 | COc1cc(-c2cc(F)cc(C(F)(F)F)c2)ccc1-n1c(=O)ccc2cc(S(=O)(=O)Nc3cc(C)ncn3)ccc21 [Example 1101, 1-(3′-fluoro-3-methoxy-5′-(trifluoromethyl)-4-biphenylyl)-N-(6-methyl-4-pyrimidinyl)-2-oxo-1,2-dihydro-6-quinolinesulfonamide] | 41 nM
13 | COc1cc(C2CCC(F)(F)CC2)c(F)cc1-n1c(=O)ccc2cc(S(=O)(=O)Nc3ccon3)ccc21 [Example 1102, 1-(4-(4,4-difluorocyclohexyl)-5-fluoro-2-methoxyphenyl)-N-3-isoxazolyl-2-oxo-1,2-dihydro-6-quinolinesulfonamide] | 237 nM
14 | COc1cc(Br)c(F)cc1-n1c(=O)ccc2cc(S(=O)(=O)Nc3ccon3)ccc21 [Example 1105, 1-(4-bromo-5-fluoro-2-methoxyphenyl)-N-3-isoxazolyl-2-oxo-1,2-dihydro-6-quinolinesulfonamide] | 307 nM
15 | COc1cc(-c2cccc(C)c2)c(F)cc1-n1c(=O)ccc2cc(S(=O)(=O)Nc3ncco3)ccc21 [Example 1106, 1-(2-fluoro-5-methoxy-3′-methyl-4-biphenylyl)-N-1,3-oxazol-2-yl-2-oxo-1,2-dihydro-6-quinolinesulfonamide] | 24 nM
16 | COc1cc(-c2cccc(C)c2)c(F)cc1-n1c(=O)ccc2cc(S(=O)(=O)Nc3ncccn3)ccc21 [Example 1107, 1-(2-fluoro-5-methoxy-3′-methyl-4-biphenylyl)-2-oxo-N-2-pyrimidinyl-1,2-dihydro-6-quinolinesulfonamide] | 32 nM

Row | Structure (SMILES) | IC50
17 | COc1cc(-c2cccc(C)c2)c(F)cc1-n1c(=O)ccc2cc(S(=O)(=O)Nc3cccnn3)ccc21 [Example 1108, 1-(2-fluoro-5-methoxy-3′-methyl-4-biphenylyl)-2-oxo-N-3-pyridazinyl-1,2-dihydro-6-quinolinesulfonamide] | 21 nM
18 | COc1cc(-c2cccc(C)c2)c(F)cc1-n1c(=O)ccc2cc(S(=O)(=O)Nc3ncc(F)cn3)ccc21 [Example 1109, 1-(2-fluoro-5-methoxy-3′-methyl-4-biphenylyl)-N-(5-fluoro-2-pyrimidinyl)-2-oxo-1,2-dihydro-6-quinolinesulfonamide] | 20 nM
19 | COc1cc(CC2CCCCC2)c(F)cc1-n1c(=O)ccc2cc(S(=O)(=O)Nc3ncco3)ccc21 [Example 1110, 1-(4-(cyclohexylmethyl)-5-fluoro-2-methoxyphenyl)-N-1,3-oxazol-2-yl-2-oxo-1,2-dihydro-6-quinolinesulfonamide] | 52 nM
20 | COc1cc(CC2CCCCC2)c(F)cc1-n1c(=O)ccc2cc(S(=O)(=O)Nc3ncc(F)cn3)ccc21 [Example 1111, 1-(4-(cyclohexylmethyl)-5-fluoro-2-methoxyphenyl)-N-(5-fluoro-2-pyrimidinyl)-2-oxo-1,2-dihydro-6-quinolinesulfonamide] | 88 nM
21 | COc1cc(CC2CCCCC2)c(F)cc1-n1c(=O)ccc2cc(S(=O)(=O)Nc3cccnn3)ccc21 [Example 1112, 1-(4-(cyclohexylmethyl)-5-fluoro-2-methoxyphenyl)-2-oxo-N-3-pyridazinyl-1,2-dihydro-6-quinolinesulfonamide] | 25 nM
22 | COc1cc(-c2cccc(C)c2)ccc1-n1c(=O)ccc2cc(S(=O)(=O)Nc3ncco3)ccc21 [Example 1113, 1-(3-methoxy-3′-methyl-4-biphenylyl)-N-1,3-oxazol-2-yl-2-oxo-1,2-dihydro-6-quinolinesulfonamide] | 44 nM
23 | COc1cc(-c2cccc(C)c2)c(F)cc1-n1c(=O)ccc2cc(S(=O)(=O)Nc3ncon3)ccc21 [Example 1114, 1-(2-fluoro-5-methoxy-3′-methyl-4-biphenylyl)-N-1,2,4-oxadiazol-3-yl-2-oxo-1,2-dihydro-6-quinolinesulfonamide] | 35 nM
24 | COc1cc(CC2CCCCC2)c(F)cc1-n1c(=O)ccc2cc(S(=O)(=O)Nc3ccncn3)ccc21 [Example 1115, 1-(4-(cyclohexylmethyl)-5-fluoro-2-methoxyphenyl)-2-oxo-N-4-pyrimidinyl-1,2-dihydro-6-quinolinesulfonamide] | 81 nM
25 | COc1cc(CC2CCCCC2)c(F)cc1-n1c(=O)ccc2cc(S(=O)(=O)Nc3cnccn3)ccc21 [Example 1116, 1-(4-(cyclohexylmethyl)-5-fluoro-2-methoxyphenyl)-2-oxo-N-2-pyrazinyl-1,2-dihydro-6-quinolinesulfonamide] | 30 nM
26 | COc1cc(-c2cccc(C)c2)ccc1-n1c(=O)ccc2cc(S(=O)(=O)Nc3ncccn3)ccc21 [Example 1117, 1-(3-methoxy-3′-methyl-4-biphenylyl)-2-oxo-N-2-pyrimidinyl-1,2-dihydro-6-quinolinesulfonamide] | 59 nM
27 | COc1cc(C[C@H]2CCCOC2)c(F)cc1-n1c(=O)ccc2cc(S(=O)(=O)Nc3ccon3)ccc21 [Example 1118, 1-(5-fluoro-2-methoxy-4-((3R)-tetrahydro-2H-pyran-3-ylmethyl)phenyl)-N-3-isoxazolyl-2-oxo-1,2-dihydro-6-quinolinesulfonamide, 1-(5-fluoro-2-methoxy-4-((3S)-tetrahydro-2H-pyran-3-ylmethyl)phenyl)-N-3-isoxazolyl-2-oxo-1,2-dihydro-6-quinolinesulfonamide] | 1480 nM
28 | COc1cc(-c2cccc(C)c2)ccc1-n1c(=O)ccc2cc(S(=O)(=O)Nc3ncc(F)cn3)ccc21 [Example 1119, N-(5-fluoro-2-pyrimidinyl)-1-(3-methoxy-3′-methyl-4-biphenylyl)-2-oxo-1,2-dihydro-6-quinolinesulfonamide] | 40 nM
29 | COc1cc(-c2cccc(C)c2)ccc1-n1c(=O)ccc2cc(S(=O)(=O)Nc3cccnn3)ccc21 [Example 1120, 1-(3-methoxy-3′-methyl-4-biphenylyl)-2-oxo-N-3-pyridazinyl-1,2-dihydro-6-quinolinesulfonamide] | 108 nM
30 | COc1cc(CC2CCOCC2)c(F)cc1-n1c(=O)ccc2cc(S(=O)(=O)Nc3ccon3)ccc21 [Example 1121, 1-(5-fluoro-2-methoxy-4-(tetrahydro-2H-pyran-4-ylmethyl)phenyl)-N-3-isoxazolyl-2-oxo-1,2-dihydro-6-quinolinesulfonamide] | 694 nM
31 | COc1cc(C#CC(C)(C)C)c(F)cc1-n1c(=O)ccc2cc(S(=O)(=O)Nc3ccon3)ccc21 [Example 1122, 1-(4-(3,3-dimethyl-1-butyn-1-yl)-5-fluoro-2-methoxyphenyl)-N-3-isoxazolyl-2-oxo-1,2-dihydro-6-quinolinesulfonamide] | 80 nM
